Experiments:
[1] = tested on: anti-compound 2 sera and anti-compound 3 sera; experiment: RIA of bupropion using 125I-labeled bupropion competitors with anti-compound 2 sera and anti-compound 3 sera; format: biochemical; conditions: for RIA sensitivity compared with the compound 10 system: substitution of 7 or 8 as competitor, anti-compound 2 and anti-compound 3 sera
Method: (§1) Samples of six standard solutions of bupropion in blank plasma having concentrations of 0.39 to 50 ng/ml) are pipetted (0.1 ml each) in duplicate into 12×75 mm plastic tubes. Duplicate non-specific binding (no antibody) and maximum binding tubes (no unlabeled bupropion) receive 0.1 ml blank plasma. Spiked plasma controls at several concentrations of (e.g., 1.0, 10.0, and 100 ng/ml) and plasma samples for assay (diluted into the standard range with blank plasma if necessary) are assayed in duplicate. After being placed in an ice bath, all tubes receive (in order) 0.2 ml ^3 H bupropion (416 pg. containing approximately 10^4 cpm) and 0.7 ml anti-bupropion serum (raised to a ring-functionalized immunogen according to the present invention) (at pre-determined dilutions such that approximately 40% of the ^3 H bupropion added is bound), both in assay buffer (0.05 M phosphate-bufferedisotonic saline, containing 0.01 M EDTA and 0.1% gelatin, pH 7.0). Non-specific binding tubes receive 0.7 ml assay buffer.) Following incubation either at 25° C. for 2 hours or overnight at 4° C., bound and free ^3 H bupropion are separated by incubation for 10 min at 0° C. with 0.5 ml ice-cold dextran-coated charcoal solution (0.25% dextran, 5 mg/ml charcoal, in assay buffer) followed by centrifugation for 10 minutes at 4° C. […] The supernatants, containing antibody-bound ^3 H bupropion are carefully decanted into liquid scintillation cocktail for quantitation of ^3 H. After counts (minus average non-specific binding cpm) are expressed as percentages of average maximum binding cpm, bupropion concentrations in plasma samples and spiked controls are read from a standard curve (log concentration vs percent average maximum binding).
RIA's have been run according to the method of Example X utilizing ^125 I labeled bupropion competitors of the present invention in conjunction with antisera obtained following immunization with immunogens of the present invention. […] Following the ethanol precipation of antibody-bound ^125 I-bupropion competitior at equilibrium, ^125 I in the protein pellets was quantified.

[2] = tested on: anti-compound 1 sera; experiment: RIA of bupropion using compound 6 with anti-compound 1 sera; format: biochemical
Method: as §1, with “7.0).” for “7.0). Non-specific binding tubes receive 0.7 ml assay buffer.) Following incubation either at 25° C. for 2 hours or overnight at 4° C., bound and free ^3 H bupropion are separated by incubation for 10 min at 0° C. with 0.5 ml ice-cold dextran-coated charcoal solution (0.25% dextran, 5 mg/ml charcoal, in assay buffer) followed by centrifugation for 10 minutes at 4° C.”, “binding). […]” for “binding).”

| SMILES | RIA sensitivity compared with the compound 10 system [1] | also measured |
| --- | --- | --- |
| CC(NC(C)(C)C)C(=O)c1ccc(OCC(=O)NCCc2ccc(O)c([125I])c2)c(Cl)c1 (stereo not drawn) [compound 7, α-t-Butylamino-3-chloro-4-carbomethoxypropiophenone-^125 I-tyramine amide] | approximately equal to that obtained with the compound 10 system | – |
| CC(NC(C)(C)C)C(=NOCC(=O)NCCc1ccc(O)c([125I])c1)c1cccc(Cl)c1 (stereo not drawn) [compound 6, α-t-Butylamino-3-chloropropiophenone-carboxymethyloxime-^125 I-tyramine amide] | – | RIA sensitivity [2]: least sensitive RIA |
| CC(NC(C)(C)C)C(=O)c1ccc(O)c([125I])c1 (stereo not drawn) [compound 9, ^125 I-α-t-Butylamino-3-iodo-4-hydroxypropiophenone] | – | RIA sensitivity relative to the compound 10 (3H bupropion) assay system ([1]; in conjunction with either antisera (anti-compound 2 or anti-compound 3)): approximately ten |
| CC(NC(C)(C)C)C(=O)c1ccc(CCCOC(=O)CCC(=O)NCCc2ccc(O)c([125I])c2)c(Cl)c1 (stereo not drawn) [compound 8, α-t-Butylamino-3-chloro-4-γ-hydroxypyropylpropiophenone-hemisuccinate-^125 I-tyramine amide] | approximately equal to that obtained with the compound 10 system | – |

Source: patent US4347178A, “Compounds and methods of making” (Burroughs Wellcome Co., priority 1980, dated 1982)
